The values below come from patent US20220315897A1, “METHOD FOR IN VITRO PRODUCTION OF HYALINE CARTILAGE TISSUE” (VANARIX SA, priority 2019, published 2022).

What all share (format): cell-based, human
Assay [1] has as its system chondrocytes. The experiment in a line: qPCR of ACAN and COL2A1 mRNA in chondrocytes and beads (2-step method) with WNT inhibitor. The settings on record: 10 μM in medium E; 2-step method after 2D and 3D culture. The protocol:
(§1) XAV939 was obtained by Sigma and used at the concentration of 10 μM for 4 days in 2D culture in medium E.
Isolation of total RNA was performed by using the RNeasy kit from Qiagen according to the manufacturer's instructions and was measured using a spectrometer. 500 ng of total RNA was used to synthesize cDNA using the PrimeScript RT Reagent Kit (Takara) according to manufacturer's protocol.
Real-time PCR was performed with PowerUp SYBR Green Master Mix (Applied Biosystems) using the QuantStudio 12K Flex Real-Time PCR System (Thermo Fisher Scientific) at the Genomic platform core facilities (University of Geneva). First, efficacy tests were performed for all primers for validation prior utilization. The relative level of each sample was normalized, at least, to […] (ALAS1). RT-PCR reactions were carried out, at least, in technical and biological triplicates, and the average cycle threshold (CT) values were determined.
(§2) In order to validate the role of WNT pathway downregulation during the redifferentiation phase (medium R) (FIG. 1A), the inventors replaced medium R by medium E supplemented with 10 μM of XAV-939, a WNT pathway inhibitor for 4 days (FIG. 7G).
(In qPCR the cycle at which signal appears reflects the starting amount.)

Assay [2] has as its system chondrocytes. The experiment in a line: Safranin-O staining of GAG in beads from chondrocytes cultured in medium E + WNT inhibitor (2-step method). The settings on record: medium E + 10 μM inhibitor. The protocol: as §1
Safranin-O staining of cartilage spheres and native cartilage formalin-fixed paraffin-embedded samples was performed, in order to reveal glycosaminoglycans (GAG) on 5 μm paraffin slices. Slides were deparaffinated by Xylol and rehydrated by consecutive alcohol bath (concentration 100%, 95% and 70%) with a final 5-minutes distilled water bath. Then, hematoxylin staining was used for nucleus counterstaining, followed by a 5-minutes wash with running hot water. Fast Green (Sigma F7252) was used to stain the cytoplasm, then washed out with acetic acid. The slides were washed out immediately with distilled water. Safranin-O 0.1% in water bath (Sigma S2255) was applied for staining of GAGs for two and a half minutes, then washed repeatedly with distilled water. Dehydration was achieved by vigorously shaking the rack 10-20 times in alcohol baths (concentration 95% and 100%), followed by a Xylol bath until slides assembly with Eukitt resin (Batch A1113, KiNDO1500).
as §2

In assay [3] the test system is WNT signaling. Nature of the assay: Immunoblotting of chondrocytes treated with WNT signaling inhibitor. As to conditions: 10 μM, 4 days, 2D culture in medium E. The protocol:
as §1
Cells were lysed 30 min on ice in ice-cold RIPA buffer (Life Technologies), supplemented with phosphatase and protease inhibitors (Complete anti-protease cocktail; Roche). Protein (10 μg) was separated by SDS-PAGE (BioRad) and transferred to PVDF membranes (Amersham) Blots were probed with anti-phospho-β-catenin (Cell Signaling; 5651T), TCF-4 (Cell Signaling; 2569), Axin1 (Cell Signaling; 2087), β-actin HRP (Sigma-Aldrich) and GADPH (Cell Signaling; 2118) (1:1000) followed by the HRP-Rabbit or Mouse conjugated antibodies (1:5000).
as §2

With `Oc1nc(-c2ccc(C(F)(F)F)cc2)nc2c1CSCC2` [XAV-939], in assay [1], the ACAN expression result is given as “increase” and the COL2A1 expression entry is “increase”. The “GAG Safranin-O staining of beads” value in assay [2] was “presence of hyaline features”. Further, in assay [3], the “axin (immunoblot)” value is on record as “increase” and the “phospho-β-catenin (immunoblot)” value is “increase”.
